Holding throughout (type): functional
The test system of test [1] is Encephalomyocarditis virus. The test is described as follows: In vitro antiviral activity against Encephalomyocarditis virus(EMCV) […], at the concentration 1000-1 ug/ml.
The subject of another test is Mus musculus. The test is described as follows: In vivo antiviral activity against Encephalomyocarditis virus(EMCV) in mice, at the concentration 0.25 mg/mouse.
Test [2] relates to Encephalomyocarditis virus. Briefly: In vitro antiviral activity against Encephalomyocarditis virus(EMCV) […], at the concentration 7.8 ug/ml.
The test system of test [3] is Encephalomyocarditis virus. The test is described as follows: In vitro antiviral activity against Encephalomyocarditis virus(EMCV) […], at the concentration 15.6 ug/ml.

Each structure is given as a SMILES string.

`Cc1cc(NNC(=O)[C@@H]2O[C@H]2c2ccncc2)nc2ccccc12` displayed a Protection in test [1] of 0%.
Still for that read-out and setting: as for `Cc1cc(NNC(=O)[C@@H]2O[C@H]2c2cccc([N+](=O)[O-])c2)nc2ccccc12`, the figure is 0%.
On to `Cc1cc(NNC(=O)[C@@H]2O[C@H]2c2ccc3c(c2)OCO3)nc2ccccc12`, for which the values for the Protection (with Mus musculus; in test [2]) were 10% and 75%, respectively.
With `COc1ccc([C@@H]2O[C@H]2C(=O)NNc2cc(C)c3ccccc3n2)cc1`, the Protection is 75% in test [3] and 25% in the test on Mus musculus.
Take `Cc1cc(NNC(=O)CCl)nc2ccccc12`: the Protection in test [1] was 0%.
On the same count and under the same terms, as for `Cc1cc(NNC(=O)[C@@H]2O[C@H]2c2ccc(Cl)cc2)nc2ccccc12`, the figure is 0%.
